Data as given in EPA's CvTdb concentration-time database.

How the values were obtained:
Assay in all cases: concentration in plasma after dosing
Rat [1] = settings: 2 h; dosed: Formamide; 10 mg/kg; iv; Male; F344
Rat [2] = settings: 2 h; dosed: Formamide; 10 mg/kg; iv; Male; F344; remark: listed apart in the source
Rat [3] = settings: dosed: Formamide, 10 mg/kg, iv, Female, F344
Rat [4] = settings: dosed: Formamide, 10 mg/kg, iv, Male, F344
Rat [5] = settings: dosed: Formamide, 10 mg/kg, iv, Male, F344; remark: listed apart in the source
Rat [6] = settings: 2 h; dosed: Formamide; 10 mg/kg; iv; Male; F344; remark: listed apart in the source
Rat [7] = settings: dosed: Formamide, 30 mg/kg, iv, Female, F344
Rat [8] = settings: dosed: Formamide, 10 mg/kg, iv, Male, F344; remark: listed apart in the source
Rat [9] = settings: dosed: Formamide, 10 mg/kg, iv, Male, F344; remark: listed apart in the source
Rat [10] = settings: 5 h; dosed: Formamide; 10 mg/kg; iv; Male; F344
Rat [11] = settings: dosed: Formamide, 10 mg/kg, iv, Female, F344; remark: listed apart in the source
Rat [12] = settings: dosed: Formamide, 30 mg/kg, iv, Female, F344; remark: listed apart in the source
Rat [13] = settings: dosed: Formamide, 10 mg/kg, iv, Male, F344; remark: listed apart in the source
Rat [14] = settings: dosed: Formamide, 10 mg/kg, iv, Male, F344; remark: listed apart in the source
Rat [15] = settings: dosed: Formamide, 10 mg/kg, iv, Male, F344; remark: listed apart in the source
Rat [16] = settings: dosed: Formamide, 10 mg/kg, iv, Male, F344; remark: listed apart in the source
Rat [17] = settings: 0.5 h; dosed: Formamide; 10 mg/kg; iv; Male; F344
Rat [18] = settings: 2 h; dosed: Formamide; 10 mg/kg; iv; Male; F344; remark: listed apart in the source
Rat [19] = settings: dosed: Formamide, 10 mg/kg, iv, Male, F344; remark: listed apart in the source
Rat [20] = settings: dosed: Formamide, 10 mg/kg, iv, Female, Harlan Sprague-Dawley
Rat [21] = settings: 0.5 h; dosed: Formamide; 30 mg/kg; iv; Female; F344
Rat [22] = settings: dosed: Formamide, 10 mg/kg, iv, Female, Harlan Sprague-Dawley; remark: listed apart in the source
Rat [23] = settings: 0.5 h; dosed: Formamide; 10 mg/kg; iv; Male; F344; remark: listed apart in the source
Rat [24] = settings: dosed: Formamide, 10 mg/kg, iv, Male, F344; remark: listed apart in the source
Rat [25] = settings: dosed: Formamide, 30 mg/kg, iv, Female, F344; remark: listed apart in the source
Rat [26] = settings: dosed: Formamide, 10 mg/kg, iv, Male, F344; remark: listed apart in the source
Rat [27] = settings: dosed: Formamide, 30 mg/kg, iv, Female, F344; remark: listed apart in the source
Rat [28] = settings: dosed: Formamide, iv
Rat [29] = settings: dosed: Formamide, 10 mg/kg, iv, Male, F344; remark: listed apart in the source
Rat [30] = settings: 0.5 h; dosed: Formamide; 10 mg/kg; iv; Female; Harlan Sprague-Dawley
Rat [31] = settings: dosed: Formamide, 30 mg/kg, iv, Female, F344; remark: listed apart in the source
Rat [32] = settings: 2 h; dosed: Formamide; 10 mg/kg; iv; Male; F344; remark: listed apart in the source
Rat [33] = settings: 3 h; dosed: Formamide; 10 mg/kg; iv; Male; F344
Rat [34] = settings: 5 h; dosed: Formamide; 10 mg/kg; iv; Male; F344; remark: listed apart in the source
Rat [35] = settings: 5 h; dosed: Formamide; 10 mg/kg; iv; Male; F344; remark: listed apart in the source
Rat [36] = settings: 0.5 h; dosed: Formamide; 10 mg/kg; iv; Female; Harlan Sprague-Dawley; remark: listed apart in the source
Rat [37] = settings: dosed: Formamide, 10 mg/kg, iv, Male, F344; remark: listed apart in the source
Rat [38] = settings: 5 h; dosed: Formamide; 10 mg/kg; iv; Male; F344; remark: listed apart in the source
Rat [39] = settings: dosed: Formamide, 30 mg/kg, iv, Female, F344; remark: listed apart in the source
Rat [40] = settings: dosed: Formamide, 10 mg/kg, iv, Male, F344; remark: listed apart in the source
Rat [41] = settings: dosed: Formamide, 10 mg/kg, iv, Male, F344; remark: listed apart in the source
Rat [42] = settings: dosed: Formamide, 10 mg/kg, iv, Male, F344; remark: listed apart in the source
Rat [43] = settings: dosed: Formamide, 10 mg/kg, iv, Male, F344; remark: listed apart in the source
Rat [44] = settings: dosed: Formamide, 10 mg/kg, iv, Male, F344; remark: listed apart in the source
Rat [45] = settings: dosed: Formamide, 30 mg/kg, iv, Female, F344; remark: listed apart in the source

NC=O [Formamide]
Settings | concentration in plasma [ng/mL]
Rat [1] | 12400
Rat [2] | 13000
Rat [6] | 12600
Rat [10] | 13400
Rat [17] | 11100
Rat [18] | 14100
Rat [21] | 39700
Rat [23] | 13400
Rat [30] | 11100
Rat [32] | 12800
Rat [33] | 12000
Rat [34] | 13700
Rat [35] | 10500
Rat [36] | 13500
Rat [38] | 9600

Settings | concentration in plasma [ng/mL]
Rat [3], 10 min | 8500
Rat [3], 18 h | 2900
Rat [4], 0.25 h | 6900
Rat [4], 24 h | 2900
Rat [5], 5 min | 12900
Rat [5], 36 h | 2200
Rat [7], 0.5 h | 44700
Rat [7], 48 h | 1600
Rat [8], 0.25 h | 13300
Rat [8], 24 h | 3900
Rat [9], 1 h | 12700
Rat [9], 3 h | 12800
Rat [11], 10 min | 12500
Rat [11], 18 h | 3300
Rat [12], 0.25 h | 17600
Rat [12], 24 h | 7700
Rat [13], 8 h | 7100
Rat [13], 12 h | 5600
Rat [14], 5 min | 2100
Rat [14], 36 h | 2100
Rat [15], 1 h | 13400
Rat [15], 3 h | 11700
Rat [16], 5 min | 11900
Rat [16], 36 h | 2000
Rat [19], 8 h | 9200
Rat [19], 12 h | 6700
Rat [20], 0.25 h | 14700
Rat [20], 24 h | 2900
Rat [22], 0.25 h | 13000
Rat [22], 24 h | 2100
Rat [24], 1 h | 13500
Rat [24], 3 h | 13300
Rat [25], 5 min | 39500
Rat [25], 36 h | 3400
Rat [26], 1 h | 14500
Rat [26], 3 h | 12400
Rat [27], 8 h | 26800
Rat [27], 12 h | 22600
Rat [29], 8 h | 5700
Rat [29], 12 h | 6800
Rat [31], 0.25 h | 16100
Rat [31], 24 h | 10100
Rat [37], 10 min | 15400
Rat [37], 18 h | 4700
Rat [39], 8 h | 27500
Rat [39], 12 h | 22800
Rat [40], 5 min | 11200
Rat [40], 36 h | 1400
Rat [41], 8 h | 8600
Rat [41], 12 h | 5100
Rat [42], 5 min | 13700
Rat [42], 36 h | 3100
Rat [43], 8 h | 8000
Rat [43], 12 h | 6700
Rat [44], 10 min | 10700
Rat [44], 18 h | 2900
Rat [45], 5 min | 43900
Rat [45], 36 h | 2500

concentration in plasma [ng/mL], Rat [28]
Settings | Female | Male
0.25 h, 10 mg/kg, F344 | – | 7100
0.25 h, 10 mg/kg, Harlan Sprague-Dawley | 13600 | –
0.25 h, 30 mg/kg, F344 | 37100 | –
0.5 h, 10 mg/kg, F344 | – | 14100
0.5 h, 10 mg/kg, Harlan Sprague-Dawley | 9300 | –
0.5 h, 30 mg/kg, F344 | 28200 | –
1 h, 10 mg/kg, F344 | – | 14700
2 h, 10 mg/kg, F344 | – | 12500
3 h, 10 mg/kg, F344 | – | 13700
5 h, 10 mg/kg, F344 | – | 14200
5 h, 10 mg/kg, Harlan Sprague-Dawley | 13000 | –
5 min, 10 mg/kg, F344 | – | 11800
5 min, 30 mg/kg, F344 | 46500 | –
8 h, 10 mg/kg, F344 | – | 8200
8 h, 30 mg/kg, F344 | 25000 | –
10 min, 10 mg/kg, F344 | 3500 | 14200
12 h, 10 mg/kg, F344 | – | 6300
12 h, 30 mg/kg, F344 | 21400 | –
18 h, 10 mg/kg, F344 | 3400 | 4000
24 h, 10 mg/kg, F344 | – | 3800
24 h, 10 mg/kg, Harlan Sprague-Dawley | 2300 | –
24 h, 30 mg/kg, F344 | 7900 | –
36 h, 10 mg/kg, F344 | – | 2300
36 h, 30 mg/kg, F344 | 4300 | –
48 h, 30 mg/kg, F344 | 1200 | –
